Consider 19 compounds from US4260551A, “Polyprenyl derivatives” (Sankyo Company Limited, priority 1979, dated 1981).

The test system of series [1] is male mice (ddY strains), reserpine ulcer. The series can be described thus: Anti-reserpine ulcer activity. Format: in vivo. To be noted: Mus musculus, ip, 18 h, i.p., 5 mice, reserpine 10 mg/kg s.c., read-out: Inhibitory Ratio (ulcer area). The procedure: The test was carried out in accordance with the method described by C. Blackmann, D. S. Campion and F. N. Fastier in British Journal of Pharmacology and Chemotherapy, vol. 14, 112 (1959), which is as follows:
The test compound was intraperitoneally administered to male mice (ddY strains, body weight: 28-33 g), and, 30 minutes later, reserpine was subcutaneously administered in the dose of 10 mg/kg. After 18 hours from the reserpine administration, the animal was sacrificed, and the stomach was isolated. This stomach was inflated with 2 ml of 0.5% formalin and was fixed. Then, the stomach was opened by cutting along the greater curvature, and the ulcer area*^(1) was measured with a stereoscopic microscope. The ulcer areas of the treated group and the control group were compared, and the inhibitory ratios were calculated.
*(1) ulcer area (mm^2): sum of each ulcer area (longitude×latitude).
The anti-reserpine ulcer activity shown when the test compound was intraperitoneally administered is set out in Table 1.

For series [2], the system named is male rats (Donryu strain), stress ulcer. The series can be described thus: Anti-stress ulcer activity (restraint-immersion). In kind it is in vivo, rat. To be noted: for Ulcer index: control 22.3. Here is the method: The test was carried out in accordance with the method described by K. takagi and S. Okabe in The Japanese Journal of Pharmacology, vol. 18, 9 (1968), which is as follows:
Male rats (Donryu strain, body weight: 200-220 g) were placed under restraint in a stress cage and immersed vertically in the water bath kept at 23°±1° C. to the height of the xiphoid of the animal. After restraint-immersion for 8 hours, the animals were sacrificed. The stomach was fixed with formalin and measured in its ulcer index *^(2). The ulcer indices of the treated group and the control group were compared, and the inhibitory ratios were calculated. The test compound was orally administered for 3 days prior to and immediately before the restraint-immersion.
*(2) ulcer index (mm): sum of the length of each linear ulcer.
The anti-stress ulcer activity shown when the test compound was orally administered is set out in Table 2.

For series [3] the following is noted: Arch. int. Pharmacodyn., 1964, 147, 113; cited from earlier work.
The subject of series [4] is male rats (Donryu strain), cysteamine duodenal ulcer. Description: Anti-cysteamine duodenal ulcer activity. Format: in vivo, rat. To be noted: for Duodenal ulcer index: score 0-5, control 2.45. The procedure:
The test was carried out in accordance with the method described by H. Selye and S. Szabo in Nature, vol. 244, 458 (1973), which is as follows. Male rats (Donryu strain, body weight: 200-220 g) had been fasted overnight, were orally treated with 300 mg/kg of cysteamine to induce duodenal ulcer. The test compounds were orally administered four times, that is, for two days prior to, immediately before and on the day next to the treatment of cysteamine. The animals were killed two days after the treatment of cysteamine, and the duodenal ulcer index*^(3) was determined. The duodenal ulcer indices of the treated group and the control group were compared, and the inhibitory ratios were calculated. |^(*3) Duodenal ulcer index: Ulcer of each animal was |scored according to the |following criteria. |0: no lesion |1: hemorrhagic spots |2: product of longitudinal and latitudinal diameters |(S) ≤ 16 mm^2 |3: product of longitudinal and latitudinal diameters |(S) ≤ 16 mm^2, 16 < (s) ≤ 25 |4: product of longitudinal and latitudinal diameters |(S) ≤ 16 mm^2, (s) > 25 mm^2 |5: perforated ulcer The anti-cysteamine duodenal ulcer activity shown when the compound was orally administered is set out in Table 3.

For a further series, the system named is ddY strain male mouse. The series can be described thus: Acute toxicity, ddY strain male mouse. Format: in vivo. To be noted: 5,000 mg/kg orally given. The source says: (§1) The acute toxicity of the compound A is set out in Table 4.
A further series concerns Donryu strain male rat. The series can be described thus: Acute toxicity, Donryu strain male rat. In kind it is in vivo. To be noted: 1,000 mg/kg orally given.
Excerpt: as §1

[5] abbreviates: 100 mg/kg/day × 4, p.o., Compound A marked *significant inhibition, probability less than 0.05.
Setting [6] is: 300 mg/kg/day × 4, p.o., Compound A marked *significant inhibition, probability less than 0.05.

With `CC(C)=CCC/C(C)=C/CC/C(=C/CC/C(C)=C/COC(=O)c1ccccc1)COC(=O)c1ccccc1` [Compound E, (E,Z,E)7-hydroxymethyl-3,11,15-trimethyl-2,6,10,14-hexadecatetraen-1-ol dibenzoate], in series [1] (171 mg/kg), the inhibition in vivo at 171 mg/kg came to 64.5%.
`CC(C)=CCC/C(C)=C/CC/C(=C\CC/C(C)=C\CO)CO` [Compound J, (Z,E,E)7-hydroxymethyl-3,11,15-trimethyl-2,6,10,14-hexadecatetraen-1-ol]: the inhibition in vivo at 100 mg/kg in series [1] was determined as 49.4%.
With `CC(=O)OC/C=C(\C)CC/C=C(/CC/C=C(\C)CCC=C(C)C)COC(C)=O` [Compound D, (E,Z,E)7-hydroxymethyl-3,11,15-trimethyl-2,6,10,14-hexadecatetraen-1-ol diacetate], the inhibition in vivo at 127 mg/kg in series [1] worked out at 54.2%.
Turning to `C/C(=C\CC/C(C)=C/CCC(=CCC/C(C)=C/CO)CO)CO` [Compound N, 7,15-Dihydroxymethyl-3,11-dimethyl-2,6,10,14-hexadecatetraen-1-ol], the inhibition in vivo at 105 mg/kg in series [1] (105 mg/kg) came out at 64.5%.
On to `CC(C)=CCC/C(C)=C/CC/C(=C\CC/C(C)=C/CO)CO` [Compound H, (E,E,E)7-hydroxymethyl-3,11,15-trimethyl-2,6,10,14-hexadecatetraen-1-ol], for which the inhibition in vivo at 100 mg/kg in series [1] came to 57%.
For `CC(=O)OC/C=C(\C)CC/C=C(\CC/C=C(\C)CCC=C(C)C)COC(C)=O` [Compound I, (E,E,E)7-hydroxymethyl-3,11,15-trimethyl-2,6,10,14-hexadecatetraen-1-ol diacetate], the inhibition in vivo at 127 mg/kg in series [1] amounted to 64.5%.
As for `CC(C)=CCCC(=CCC/C(C)=C/CO)CO` [Compound M, (E,Z) & (E,E)7-hydroxymethyl-3,11-dimethyl-2,6,10-dodecatrien-1-ol], the inhibition in vivo at 77.8 mg/kg in series [1] (77.8 mg/kg) was determined as 60.1%.
`CC(C)=CCC/C(C)=C\CCC(=CCC/C(C)=C/CO)CO` [Compound K, (E,Z,Z) & (E,E,Z)7-hydroxymethyl-3,11,15-trimethyl-2,6,10,14-hexadecatetraen-1-ol]: in series [1], the inhibition in vivo at 100 mg/kg worked out at 58.7%.
As to `CC(=O)OC/C=C(\C)CCC=C(CCC=C(C)CC/C=C(\C)CCC=C(C)C)COC(C)=O` [Compound P, 7-Hydroxymethyl-3,11,15,19-tetramethyl-2,6,10,14,18-eicosapentaen-1-ol diacetate], the inhibition in vivo at 150 mg/kg in series [1] (150 mg/kg) was found to be 45.7%.
As to `CC(C)=CCC/C(C)=C/CCC(C)=CCCC(=CCC/C(C)=C/COC(=O)c1ccccc1)COC(=O)c1ccccc1` [Compound Q, 7-Hydroxymethyl-3,11,15,19-tetramethyl-2,6,10,14,18-eicosapentaen-1-ol dibenzoate], the inhibition in vivo at 193 mg/kg in series [1] (193 mg/kg) was 56.2%.
Regarding `CC(C)=CCCC(=CCCC(C)=CCC/C(C)=C/CO)CO` [Compound L, (E,E,E), (E,Z,E), (E,E,Z) & (E,Z,Z)11-hydroxymethyl-3,7,15-trimethyl-2,6,10,14-hexadecatetraen-1-ol], the inhibition in vivo at 100 mg/kg in series [1] was determined as 55.3%.
Take `CC(C)=CCCC(C)=CCCC(C)=CCCC(=O)OC/C=C(\C)CCC=C(C)C` [Gefarnate, geranyl farnesylacetate, reference compound]: in series [1], the inhibition in vivo at 100 mg/kg came to 10%. For the same compound, the “Inhibitory ratio (ulcer index)” value in series [2] (setting [5]) is on record as -13; in series [2] (300 mg/kg/day × 4, p.o.), -57. The Ulcer index in series [2] (100 mg/kg/day × 4, p.o.) stood at 25.3 mm; in series [2] (300 mg/kg/day × 4, p.o.) it was 35.0 mm. Further, the anti-ulcer activity result in series [3] is reported as “has an anti-ulcer activity”. Besides, in series [4] (setting [6]), the “Inhibitory ratio (duodenal ulcer index)” value is 10. The same compound came in with a Duodenal ulcer index in series [4] (300 mg/kg/day × 4, p.o.) of 2.20.
For the compound `CC(C)=CCC/C(C)=C/CCC(C)=CCCC(=CCC/C(C)=C/CO)CO` [Compound O, 7-Hydroxymethyl-3,11,15,19-tetramethyl-2,6,10,14,18-eicosapentaen-1-ol], the inhibition in vivo at 122 mg/kg in series [1] (122 mg/kg) was determined as 74.2%.
For `CCCCCCCCCCCC(=O)OC/C=C(\C)CC/C=C(/CC/C=C(\C)CCC=C(C)C)COC(=O)CCCCCCCCCCC` [Compound F, (E,Z,E)7-hydroxymethyl-3,11,15-trimethyl-2,6,10,14-hexadecatetraen-1-ol dilaurate], the inhibition in vivo at 220 mg/kg in series [1] (220 mg/kg) came out at 63.3%.
On to `COC/C=C(\C)CC/C=C(/CC/C=C(\C)CCC=C(C)C)COC` [Compound G, (E,Z,E)7-hydroxymethyl-3,11,15-trimethyl-2,6,10,14-hexadecatetraen-1-ol dimethyl ether], for which, in series [1] (109 mg/kg), the inhibition in vivo at 109 mg/kg came to 45%.
Take `CC(C)=CCC/C(C)=C/CCC(=CCC/C(C)=C/CO)CO` [Compound B, (E,Z,E) & (E,E,E)7-hydroxymethyl-3,11,15-trimethyl-2,6,10,14-hexadecatetraen-1-ol]: the inhibition in vivo at 100 mg/kg in series [1] is 65%.
Consider `CC(C)=CCC/C(C)=C/CCC(=CCCC(C)=CCO)CO` [Compound C, (E,Z,E), (E,E,E), (Z,Z,E) & (Z,E,E)7-hydroxymethyl-3,11,15-trimethyl-2,6,10,14-hexadecatetraen-1-ol], for which the inhibition in vivo at 100 mg/kg in series [1] turned out to be 59%.
For `NC(=O)CC[C@H](N)C(=O)O` [L-Glutamine, reference compound], in series [4] (1000 mg/kg/day × 4, p.o.), the “Inhibitory ratio (duodenal ulcer index)” value was determined as 31 and the Duodenal ulcer index is 1.70.
Regarding `CC(C)=CCC/C(C)=C/CC/C(=C/CC/C(C)=C/CO)CO` [Compound A, (E,Z,E)7-hydroxymethyl-3,11,15-trimethyl-2,6,10,14-hexadecatetraen-1-ol], the Death/Survival in the series with ddY strain male mouse and in the series with Donryu strain male rat was 0/5 each time. The inhibition in vivo at 100 mg/kg in series [1] came to 68.4%. For the same compound, the “Inhibitory ratio (ulcer index)” value in series [2] (10 mg/kg/day × 4, p.o.) was determined as 17; in series [2] (30 mg/kg/day × 4, p.o., *significant inhibition, probability less than 0.05), 37; in series [2] (setting [5]) it was 43. For the same compound, the Ulcer index was determined as 18.5 mm in series [2] (10 mg/kg/day × 4, p.o.); 13.8 mm in series [2] (30 mg/kg/day × 4, p.o.); 12.7 mm in series [2] (100 mg/kg/day × 4, p.o.). For the same compound, the “Inhibitory ratio (duodenal ulcer index)” value was found to be 18 in series [4] (100 mg/kg/day × 4, p.o.) and 34 in series [4] (setting [6]). Moreover, the Duodenal ulcer index in series [4] (100 mg/kg/day × 4, p.o.) stood at 2.00; in series [4] (300 mg/kg/day × 4, p.o.), 1.56.
